Results reported in paper PMC3692398 (Biochemical pharmacology, 2013).
Like-named read-outs stand apart in the source and are kept apart here.

Tests used:
hDAT [1] = target: T1, hDAT (Homo sapiens, UniProt Q01959); assay: Inhibition of [125I]RTI-55 binding, HEK-hDAT membranes
hSERT [2] = target: T2, hSERT (Homo sapiens, UniProt P31645); assay: Inhibition of [125I]RTI-55 binding, HEK-hSERT membranes
hNET [3] = target: T3, hNET (Homo sapiens, UniProt P23975); assay: biochemical; assay type: binding
hDAT [4] = target: T1, hDAT; assay: Inhibition of [3H]DA uptake, intact HEK-hDAT cells; assay type: cell-based
hSERT [5] = target: T2, hSERT; assay: Inhibition of [3H]5-HT uptake, intact HEK-hSERT cells; assay type: cell-based
hNET [6] = target: T3, hNET; assay: cell-based; assay type: cell-based
hDAT [7] = target: T1, hDAT; assay: Superfusion release of preloaded [3H]DA from HEK-hDAT cells; assay type: cell-based
hSERT [8] = target: T2, hSERT; assay: Superfusion release of preloaded [3H]5-HT from HEK-hSERT cells; assay type: cell-based
hNET [9] = target: T3, hNET; assay: Superfusion release of preloaded [3H]NE from HEK-hNET cells; assay type: cell-based
hVMAT2 [10] = target: T4, hVMAT2 (Homo sapiens, UniProt Q05940); assay: Inhibition of [3H]DHTB binding, HEK-hVMAT2 membranes
hVMAT2 [11] = target: T4, hVMAT2; assay: Inhibition of [3H]5-HT uptake, HEK-hVMAT2 membrane preparation; assay type: biochemical
hVMAT2 [12] = target: T4, hVMAT2; assay: Superfusion release of preloaded [3H]NE from HEK-hVMAT2 cells; assay type: cell-based
h5-HT1A receptor [13] = target: T5, h5-HT1A receptor (Homo sapiens, UniProt P08908); assay: [3H]8-OH-DPAT binding, HEK-h5-HT1A
T5 sequence (P08908 1-422): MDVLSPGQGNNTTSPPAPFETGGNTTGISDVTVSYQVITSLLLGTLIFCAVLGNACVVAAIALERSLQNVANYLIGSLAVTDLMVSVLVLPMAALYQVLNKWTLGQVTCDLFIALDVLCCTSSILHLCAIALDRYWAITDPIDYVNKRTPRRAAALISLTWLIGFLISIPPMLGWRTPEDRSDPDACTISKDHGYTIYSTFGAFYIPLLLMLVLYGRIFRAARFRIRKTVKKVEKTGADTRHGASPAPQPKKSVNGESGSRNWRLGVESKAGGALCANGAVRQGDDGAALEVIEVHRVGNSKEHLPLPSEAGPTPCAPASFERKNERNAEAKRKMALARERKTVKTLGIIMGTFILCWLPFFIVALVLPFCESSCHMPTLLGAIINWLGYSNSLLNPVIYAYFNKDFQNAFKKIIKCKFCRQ

h5-HT2A receptor [14] = target: T6, h5-HT2A receptor (Homo sapiens, UniProt P28223); assay: [125I]DOI binding, HEK-h5-HT2A
h5-HT2C receptor [15] = target: T7, h5-HT2C receptor (Homo sapiens, UniProt P28335); assay: biochemical; assay type: binding
T7 sequence (P28335 33-458): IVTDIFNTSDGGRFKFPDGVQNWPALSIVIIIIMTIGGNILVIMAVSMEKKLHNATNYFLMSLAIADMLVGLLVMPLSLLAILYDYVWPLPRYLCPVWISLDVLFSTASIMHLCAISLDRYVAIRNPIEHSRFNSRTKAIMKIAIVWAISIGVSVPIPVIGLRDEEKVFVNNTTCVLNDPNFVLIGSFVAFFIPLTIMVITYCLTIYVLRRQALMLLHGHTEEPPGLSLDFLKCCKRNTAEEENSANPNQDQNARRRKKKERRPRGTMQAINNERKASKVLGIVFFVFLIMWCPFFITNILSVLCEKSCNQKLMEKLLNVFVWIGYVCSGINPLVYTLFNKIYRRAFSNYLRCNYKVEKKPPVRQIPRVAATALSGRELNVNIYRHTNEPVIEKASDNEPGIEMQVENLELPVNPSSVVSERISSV

h5-HT1A receptor [16] = target: T5, h5-HT1A receptor; assay: Stimulation of [35S]GTPγS binding, HEK-h5-HT1A membranes; assay type: biochemical
h5-HT2A receptor [17] = target: T6, h5-HT2A receptor; assay: Inhibition of 5-HT-stimulated IP-1 formation; assay type: cell-based
h5-HT2C receptor [18] = target: T7, h5-HT2C receptor; assay: Inhibition of 5-HT-stimulated IP-1 formation; assay type: cell-based
hSigma1 receptor [19] = target: T8, hSigma1 receptor (Homo sapiens, UniProt Q99720); assay: [3H]; assay type: binding; details: Inhibition of [3H]pentazocine binding Ki ± sem, hSigma1
human DA D1 receptor = human DA D1 receptor (Homo sapiens, UniProt P21728); assay: [3H]SCH23390 binding, LhD1 cells; details: test drugs up to the maximal concentration tested (10 µM)
human DA D2 receptor = human DA D2 receptor (Homo sapiens, UniProt P14416); assay type: binding; details: test drugs up to the maximal concentration tested (10 µM)
human DA D3 receptor = human DA D3 receptor (Homo sapiens, UniProt P35462); assay: [3H]YM-09151-2 binding, CHOp-D3 cells; details: test drugs up to 10 µM; words give concentration range, 'low' = low nanomolar
human D4.4 receptor = target: T9, human D4.4 receptor (Homo sapiens, UniProt P21917); assay type: binding; details: test drugs up to 10 µM; words give concentration range, 'low' = low nanomolar
T9 sequence (P21917 1-419): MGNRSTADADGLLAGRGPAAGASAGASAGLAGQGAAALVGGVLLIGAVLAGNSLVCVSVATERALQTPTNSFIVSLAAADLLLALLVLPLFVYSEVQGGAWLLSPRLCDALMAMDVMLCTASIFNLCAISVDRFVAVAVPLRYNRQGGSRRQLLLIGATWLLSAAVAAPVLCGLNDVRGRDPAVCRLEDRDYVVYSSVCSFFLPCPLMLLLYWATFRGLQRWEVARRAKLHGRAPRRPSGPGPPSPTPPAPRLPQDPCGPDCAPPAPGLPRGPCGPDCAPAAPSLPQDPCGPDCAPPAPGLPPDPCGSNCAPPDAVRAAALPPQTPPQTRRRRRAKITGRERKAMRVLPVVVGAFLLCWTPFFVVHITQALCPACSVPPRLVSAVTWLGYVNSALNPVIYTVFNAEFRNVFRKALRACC

h5-HT2C receptor [20] = target: T7, h5-HT2C receptor; assay type: cell-based; details: data not shown
h5-HT2A receptor [21] = target: T6, h5-HT2A receptor; details: data not shown
hSigma1 receptor [22] = target: T8, hSigma1 receptor; details: read-out: hSigma1 Ki, published value; ref Lee et al., 2008; cited from earlier work
hDAT [23] = target: T1, hDAT; details: read-out: Kd of radioligand, HEK-hDAT; ref Eshleman et al., 1999; cited from earlier work
hSERT [24] = target: T2, hSERT; details: read-out: Kd of radioligand, HEK-hSERT; ref Eshleman et al., 1999; cited from earlier work
hNET [25] = target: T3, hNET; details: read-out: Kd of radioligand, HEK-hNET; ref Eshleman et al., 1999; cited from earlier work

T1 sequence (Q01959 whole entry): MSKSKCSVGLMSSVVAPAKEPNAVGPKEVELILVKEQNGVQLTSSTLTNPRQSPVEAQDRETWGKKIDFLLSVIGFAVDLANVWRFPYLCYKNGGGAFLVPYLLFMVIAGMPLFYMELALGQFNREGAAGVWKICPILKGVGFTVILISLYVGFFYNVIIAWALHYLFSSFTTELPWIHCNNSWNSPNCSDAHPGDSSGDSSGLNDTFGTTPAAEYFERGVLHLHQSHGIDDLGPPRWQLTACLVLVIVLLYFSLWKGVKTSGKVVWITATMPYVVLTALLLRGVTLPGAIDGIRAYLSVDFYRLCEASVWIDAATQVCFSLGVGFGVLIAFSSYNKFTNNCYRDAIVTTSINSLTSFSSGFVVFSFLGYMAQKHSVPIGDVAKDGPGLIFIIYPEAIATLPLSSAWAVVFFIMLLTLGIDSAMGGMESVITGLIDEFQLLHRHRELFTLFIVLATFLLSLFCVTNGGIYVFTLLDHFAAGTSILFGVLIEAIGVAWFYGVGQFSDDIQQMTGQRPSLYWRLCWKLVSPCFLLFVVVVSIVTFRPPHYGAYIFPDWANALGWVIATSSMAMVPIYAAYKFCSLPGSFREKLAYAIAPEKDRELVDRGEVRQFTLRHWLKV
T3 sequence (P23975 whole entry): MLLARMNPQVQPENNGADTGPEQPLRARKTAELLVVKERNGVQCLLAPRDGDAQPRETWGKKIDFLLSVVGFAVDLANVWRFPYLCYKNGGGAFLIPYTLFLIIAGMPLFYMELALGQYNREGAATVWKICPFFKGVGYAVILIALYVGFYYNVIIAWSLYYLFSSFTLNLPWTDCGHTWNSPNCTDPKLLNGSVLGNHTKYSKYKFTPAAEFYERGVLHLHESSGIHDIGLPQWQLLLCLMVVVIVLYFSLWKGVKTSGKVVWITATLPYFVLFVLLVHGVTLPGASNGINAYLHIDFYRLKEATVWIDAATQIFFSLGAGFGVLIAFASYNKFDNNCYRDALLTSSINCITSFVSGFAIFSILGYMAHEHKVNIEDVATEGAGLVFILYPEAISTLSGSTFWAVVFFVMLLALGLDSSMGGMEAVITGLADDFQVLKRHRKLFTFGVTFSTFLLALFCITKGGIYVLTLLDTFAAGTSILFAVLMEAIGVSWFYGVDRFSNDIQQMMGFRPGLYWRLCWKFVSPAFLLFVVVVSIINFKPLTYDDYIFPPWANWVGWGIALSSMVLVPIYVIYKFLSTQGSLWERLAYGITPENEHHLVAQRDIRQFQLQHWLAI
T4 sequence (Q05940 whole entry): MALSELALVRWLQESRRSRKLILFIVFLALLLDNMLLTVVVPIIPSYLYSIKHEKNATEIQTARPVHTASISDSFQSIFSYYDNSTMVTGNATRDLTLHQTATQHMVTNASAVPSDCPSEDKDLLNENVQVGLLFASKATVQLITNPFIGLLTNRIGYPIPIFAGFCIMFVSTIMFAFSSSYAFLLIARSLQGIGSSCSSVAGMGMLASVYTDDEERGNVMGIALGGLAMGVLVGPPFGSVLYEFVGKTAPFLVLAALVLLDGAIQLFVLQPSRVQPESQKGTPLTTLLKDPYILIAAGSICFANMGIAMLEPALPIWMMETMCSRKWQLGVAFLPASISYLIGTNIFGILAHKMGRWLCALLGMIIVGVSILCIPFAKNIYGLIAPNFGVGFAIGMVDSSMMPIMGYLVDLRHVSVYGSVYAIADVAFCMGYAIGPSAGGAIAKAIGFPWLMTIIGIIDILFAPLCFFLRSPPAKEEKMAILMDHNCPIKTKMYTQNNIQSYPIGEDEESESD
T6 sequence (P28223 whole entry): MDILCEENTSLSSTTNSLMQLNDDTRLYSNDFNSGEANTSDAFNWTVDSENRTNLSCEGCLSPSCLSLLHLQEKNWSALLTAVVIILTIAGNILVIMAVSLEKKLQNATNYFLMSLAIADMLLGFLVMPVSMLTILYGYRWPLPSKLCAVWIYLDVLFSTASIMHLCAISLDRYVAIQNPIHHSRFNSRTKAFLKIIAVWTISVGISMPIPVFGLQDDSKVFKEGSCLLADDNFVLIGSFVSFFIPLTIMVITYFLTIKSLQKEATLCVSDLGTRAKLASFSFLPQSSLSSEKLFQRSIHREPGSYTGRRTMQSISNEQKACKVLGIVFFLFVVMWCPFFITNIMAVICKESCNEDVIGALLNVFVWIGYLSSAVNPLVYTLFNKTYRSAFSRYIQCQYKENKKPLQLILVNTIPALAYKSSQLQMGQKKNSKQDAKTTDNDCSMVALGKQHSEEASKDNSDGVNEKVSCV
T2 sequence (P31645 whole entry): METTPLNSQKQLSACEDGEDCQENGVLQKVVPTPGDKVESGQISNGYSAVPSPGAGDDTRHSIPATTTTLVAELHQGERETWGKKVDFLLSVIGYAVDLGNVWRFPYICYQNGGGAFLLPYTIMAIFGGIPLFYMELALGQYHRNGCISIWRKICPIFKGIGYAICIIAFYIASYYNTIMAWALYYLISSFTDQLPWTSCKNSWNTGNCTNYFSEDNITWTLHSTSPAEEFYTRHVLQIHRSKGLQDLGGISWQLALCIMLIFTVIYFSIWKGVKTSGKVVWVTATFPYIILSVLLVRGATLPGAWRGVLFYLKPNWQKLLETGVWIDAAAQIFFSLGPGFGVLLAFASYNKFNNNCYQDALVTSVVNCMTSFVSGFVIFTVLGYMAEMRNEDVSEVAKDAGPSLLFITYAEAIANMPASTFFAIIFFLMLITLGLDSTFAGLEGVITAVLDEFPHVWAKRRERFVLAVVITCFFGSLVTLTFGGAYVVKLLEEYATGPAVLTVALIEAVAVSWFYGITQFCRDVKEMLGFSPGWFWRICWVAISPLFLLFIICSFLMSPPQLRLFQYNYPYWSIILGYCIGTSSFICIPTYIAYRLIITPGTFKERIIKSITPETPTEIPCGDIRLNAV
T8 sequence (Q99720 whole entry): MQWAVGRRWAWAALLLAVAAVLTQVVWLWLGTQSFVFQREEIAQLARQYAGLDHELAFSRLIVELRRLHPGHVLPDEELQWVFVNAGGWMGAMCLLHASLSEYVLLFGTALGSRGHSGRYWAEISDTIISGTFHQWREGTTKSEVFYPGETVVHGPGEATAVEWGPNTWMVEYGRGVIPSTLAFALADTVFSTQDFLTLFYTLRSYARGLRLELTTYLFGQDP
Chain of human DA D3 receptor (P35462 whole entry): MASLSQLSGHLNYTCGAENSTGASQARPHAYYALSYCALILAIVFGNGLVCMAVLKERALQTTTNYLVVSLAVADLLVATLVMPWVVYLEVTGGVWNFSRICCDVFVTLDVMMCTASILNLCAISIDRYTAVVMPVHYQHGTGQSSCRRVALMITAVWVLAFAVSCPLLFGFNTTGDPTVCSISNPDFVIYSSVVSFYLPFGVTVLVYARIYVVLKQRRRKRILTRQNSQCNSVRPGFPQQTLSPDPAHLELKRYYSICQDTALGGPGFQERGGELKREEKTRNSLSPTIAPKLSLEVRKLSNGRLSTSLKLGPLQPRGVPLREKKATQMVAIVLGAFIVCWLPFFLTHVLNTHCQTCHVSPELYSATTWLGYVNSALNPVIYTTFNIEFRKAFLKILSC
Chain of human DA D2 receptor (P14416 whole entry): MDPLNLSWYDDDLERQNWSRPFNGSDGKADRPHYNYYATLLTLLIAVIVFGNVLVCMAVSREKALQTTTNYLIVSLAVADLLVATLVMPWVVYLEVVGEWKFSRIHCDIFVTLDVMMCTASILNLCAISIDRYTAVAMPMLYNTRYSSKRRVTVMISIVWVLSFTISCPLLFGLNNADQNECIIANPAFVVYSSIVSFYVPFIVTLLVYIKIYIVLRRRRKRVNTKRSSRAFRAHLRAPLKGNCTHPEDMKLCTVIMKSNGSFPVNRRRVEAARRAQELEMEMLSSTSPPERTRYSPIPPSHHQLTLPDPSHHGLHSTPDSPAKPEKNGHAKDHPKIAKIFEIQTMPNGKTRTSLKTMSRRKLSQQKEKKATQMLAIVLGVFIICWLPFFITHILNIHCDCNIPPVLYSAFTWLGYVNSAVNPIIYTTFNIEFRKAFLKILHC
Chain of human DA D1 receptor (P21728 whole entry): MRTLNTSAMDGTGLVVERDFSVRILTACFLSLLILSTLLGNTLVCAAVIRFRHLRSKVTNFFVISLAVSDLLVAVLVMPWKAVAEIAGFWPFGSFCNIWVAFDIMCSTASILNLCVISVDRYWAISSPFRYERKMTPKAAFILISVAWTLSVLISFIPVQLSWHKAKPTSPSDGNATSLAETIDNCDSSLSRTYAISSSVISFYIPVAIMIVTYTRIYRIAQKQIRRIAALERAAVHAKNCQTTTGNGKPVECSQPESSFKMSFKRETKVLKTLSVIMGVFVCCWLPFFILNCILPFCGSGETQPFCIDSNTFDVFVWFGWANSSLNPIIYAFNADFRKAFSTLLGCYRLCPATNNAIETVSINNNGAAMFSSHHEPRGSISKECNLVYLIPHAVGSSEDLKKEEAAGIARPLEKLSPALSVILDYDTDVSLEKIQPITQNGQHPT

CN[C@@H](C)Cc1ccccc1 [METH, (+)methamphetamine, reference compound]
Ki (hDAT [1]): 3.96 ± 0.92 µM | Ki (hSERT [2]): 241 ± 8.9 µM | Ki (hNET [3]): 1.39 ± 0.12 µM | IC50 (hDAT [4]): 0.026 ± 0.01 µM | ratio of binding Ki to uptake IC50, hDAT (hDAT [4]; [125I]RTI-55 Ki / [3H]DA uptake IC50): 152 | IC50 (hSERT [5]): 4.1 ± 1.3 µM | ratio of binding Ki to uptake IC50, hSERT (hSERT [5]; [125I]RTI-55 Ki / [3H]5-HT uptake IC50): 59 | IC50 (hNET [6]): 0.026 ± 0.0077 µM | ratio of binding Ki to uptake IC50, hNET (hNET [6]): 53 | EC50 (hDAT [7]): 0.4 ± 0.12 µM | % maximum release ± sem, hDAT [3H]DA (hDAT [7]; relative to maximal AUC induced by METH (1 or 10 µM)): 101.9 ± 4.9% | % maximum release ± sem, hSERT [3H]5-HT (hSERT [8]): 97.6 ± 7.2% | EC50 (hSERT [8]): 22.4 ± 0.24 µM | fold less potent than PCA to induce [3H]5-HT release (hSERT [8]; EC50 compared to PCA): 28 fold | EC50 (hNET [9]): 0.128 ± 0.036 µM | % maximum release ± sem, hNET [3H]NE (hNET [9]; relative to maximal AUC induced by METH (0.3 or 1 µM)): 92.7 ± 5.2% | Ki (hVMAT2 [10]): 920 ± 110 µM | IC50 (hVMAT2 [11]): 4.72 ± 0.61 µM | EC50 (hVMAT2 [12]): 79 ± 29 µM | Release of [3H]NE % maximum release ± sem or range, hVMAT2 (hVMAT2 [12]): 95.5 ± 2.1% | Ki (h5-HT1A receptor [13]): 5.9 ± 0.85 µM | Ki (h5-HT2A receptor [14]): 43.5 ± 9.1 µM | Ki (h5-HT2C receptor [15]): 10.2 ± 2.9 µM | EC50 (h5-HT1A receptor [16]): 18.1 ± 4.2 µM | Emax (h5-HT1A receptor [16]; read-out: h5-HT1A Stimulation of [35S]GTPγS binding % maximum stimulation ± sem): 66% | IC50 (h5-HT2A receptor [17]): 112 ± 12 µM | h5-HT2A Inhibition of 5-HT-stimulated IP-1 formation % maximum inhibition ± sem (h5-HT2A receptor [17]; 100 nM 5-HT, normalized to maximal inhibition by ketanserin (10 µM)): 100.0 ± 0.0% | IC50 (h5-HT2C receptor [18]): > 1000 µM | h5-HT2C Inhibition of 5-HT-stimulated IP-1 formation % maximum inhibition ± sem (h5-HT2C receptor [18]; 100 nM 5-HT, normalized to maximal inhibition by SB242084 (1 µM)): < 3% | Ki (hSigma1 receptor [19]): 3.18 ± 0.74 µM | affinity for the [3H]SCH23390 binding site, DA D1 receptor (human DA D1 receptor): no measurable affinity | affinity for the [3H]YM-09151-2 binding site, DA D2 receptor (human DA D2 receptor): no measurable affinity | affinity for the [3H]YM-09151-2 binding site, DA D3 receptor (human DA D3 receptor): no measurable affinity | affinity for the [3H]YM-09151-2 binding site, DA D4.4 receptor (human D4.4 receptor): no measurable affinity | h5-HT2C agonist activity, inositol monophosphate (h5-HT2C receptor [20]): partial agonists with midmicromolar potencies | h5-HT2A agonist activity, inositol monophosphate (h5-HT2A receptor [21]): partial agonist activity at millimolar concentrations | Ki (hSigma1 receptor [22]): 5.2 µM

COC(=O)[C@H]1[C@@H](c2ccc(I)cc2)C[C@@H]2CC[C@H]1N2C [[^125I]RTI-55]
Kd (hDAT [23]): 0.00183 ± 0.00021 µM | Kd (hSERT [24]): 0.00098 ± 0.00016 µM | Kd (hNET [25]): 0.0121 ± 0.0019 µM
